How the values were obtained:
ApoE-knockout mice = experiment: Long-term feeding experiment with ApoE-knockout mice; format: in vivo; settings: ApoE-knockout mice on fat-containing Western diet; 5 ppm with the feed; after 13 months; over half of the untreated mice were dead
Experimental: Long-Term Feeding Experiment with ApoE-Knockout Mice
ApoE-knockout mice received a fat-containing diet (0.15% cholesterol, 21.4% crude fat, 19% casein; “Western diet”). The compound of Example 48 was administered in a proportion of 5 ppm with the feed to the treated group, while the control group received the food without active ingredient. After 13 months, over half of the untreated mice were dead, whereas 23 of 25 animals in the treated group were still alive.
It is known from the literature that the ApoE-knockout mice used die from myocardial infarctions and manifestations of neuronal degeneration [Caligiuri, G., et al., Proc. Natl. Acad. Sci. USA, 96, 6920-6924 (1999); Walker, L. C. Am. J. Pathol., 151, (5), 1371-1377 81997)].

atherosclerotic plaques = settings: mouse test; Zaiss et al., Circulation 100 (18, Suppl. I):258 Abstr. 1343 (1999); cited from earlier work

Compound	animals in the treated group still alive (ApoE-knockout mice)	formation of atherosclerotic plaques (atherosclerotic plaques)
Cc1cc(C)c2c3ccccc3n(Cc3ccc([C@@H](C(=O)N[C@@H](CO)c4ccccc4)C4CCCC4)cc3)c2n1 [Example 48, (2S)-2-Cyclopentyl-2-[4-(2,4-dimethyl-pyrido[2,3-b]indol-9-ylmethyl)-phenyl]-N-(2-(1R)-hydroxy-1-phenyl-ethyl)-acetamide]	23 of 25	–
implitapide	–	prevents the formation of atherosclerotic plaques

Source: US20060166999A1, “Use of microsomal triglyceride transfer protein (MTP) inhibitors for reducing the number of postprandial triglyceride-rich lipoprotein particles (PPTRL)” (Bayer Aktiengesellschaft, priority 2000, published 2006)
